{"source": "patent US20250282757A1", "about": "“ARYL ETHER-SUBSTITUTED HETEROCYCLIC COMPOUNDS AS GLP1R AGONISTS” (MINDRANK AI LTD., priority 2021, published 2025)", "key": {"GLP-1R": {"target": "GLP-1R (Homo sapiens, UniProt P43220)", "sequence (P43220 24-463)": "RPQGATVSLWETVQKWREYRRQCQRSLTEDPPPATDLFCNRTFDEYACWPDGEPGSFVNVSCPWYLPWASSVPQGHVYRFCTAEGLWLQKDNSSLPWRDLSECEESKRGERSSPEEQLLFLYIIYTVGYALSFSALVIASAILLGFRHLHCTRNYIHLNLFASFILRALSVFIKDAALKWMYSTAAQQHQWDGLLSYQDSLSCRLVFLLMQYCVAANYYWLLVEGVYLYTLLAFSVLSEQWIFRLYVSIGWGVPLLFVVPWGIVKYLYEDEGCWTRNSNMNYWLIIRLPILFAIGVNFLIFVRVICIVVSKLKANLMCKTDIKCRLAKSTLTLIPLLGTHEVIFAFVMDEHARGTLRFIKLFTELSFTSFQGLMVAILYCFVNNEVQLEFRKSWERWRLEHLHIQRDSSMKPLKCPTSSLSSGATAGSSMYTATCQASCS", "experiment": "Agonist activity on GLP-1R, HTRF cAMP detection in stably transfected GLP-1R/HEK293 cells", "type": "cell-based"}, "[1]": {"experiment": "Pharmacokinetic study in mice", "type": "in vivo, CD-1 mice", "details": "for AUC(0-inf): read-out: AUC0-inf; for half-life: read-out: T½ (converted)", "description": "The pharmacokinetic properties of some compounds of the present invention were evaluated in mice pharmacokinetic experiments. SPF male CD-1 mice from Beijing Vital River Laboratory Animal Technology Co., Ltd were used with 6 mice in each group. Compounds were dissolved in 10% solutol/90% saline. A single intravenous administration was given at a dose of 1 mg/kg in a volume of 1 mL/kg. A single intragastric administration was given at a dose of 5 mg/kg in a volume of 1 mL/kg. Animals were fasted overnight prior to the administration and resumed feeding 4 hours after administration, ad libitum to water. Blood was collected at 0.0830, 0.25, 0.5, 1, 2, 4, 6, 8 and 24 hours after dosing. About […] of whole blood was collected from the saphenous vein of animals and placed in an EDTA-K2 anticoagulation tube. The samples were centrifuged at 4° C. and 4200 rpm for 5 min, and the plasma was transferred into a centrifuge tube and stored at −80° C. until analysis. For plasma sample analysis, the test compounds and internal standards (Labetalol & tolbutamide & Verapamil & dexamethasone & glyburide & Celecoxib) were extracted from mice plasma by protein precipitation method with acetonitrile, and the extracts were analyzed by LC/MS/MS. The measured plasma concentration-time data of individual animals were analyzed with the non-compartmental model of Phoenix WinNonlin 7.0 (Pharsight, USA) software, and the pharmacokinetic parameters of mice were obtained as follows: maximum (peak) plasma drug concentration Cmax; Peak time Tmax; half-life T1/2 and area under the plasma concentration-time curve extrapolated to infinity AUC0-inf."}, "[2]": {"experiment": "Pharmacokinetic study in monkeys", "type": "in vivo, cynomolgus monkeys", "details": "for AUC(0-inf): read-out: AUC0-inf; for half-life: read-out: T½ (converted)", "description": "The pharmacokinetic properties of compounds of the present invention were evaluated in monkey pharmacokinetic experiments with 3 male Non-naive cynomolgus monkeys per group. Compounds were dissolved in 10% solutol/90% saline. For single intravenous administration, the dose was 1 mg/kg, and the administration volume was 1 mL/kg. For single intragastric administration, the dose was 5 mg/kg, and the administration volume was 1 mL/kg. Animals were fasted overnight with free water before the experiment and resumed feeding 4 hours after administration. Blood was collected at 0.0830, 0.25, 0.5, 1, 2, 4, 6, 8 and 24 hours after dosing. About 0.4 mL of whole blood was collected from the animal's forearm vein and placed in an EDTA-K2 anticoagulant tube. The samples were centrifuged at 4° C. and 4200 rpm for 5 min, and the plasma was transferred to a centrifuge tube and stored at −80° C. until analysis. For plasma sample analysis, the test compounds and internal standards (Labetalol & tolbutamide & Verapamil & dexamethasone & glyburide & Celecoxib) were extracted from monkey plasma by protein precipitation method with acetonitrile, and the extracts were analyzed by LC/MS/MS. Measured plasma concentration-time data in individual animals were analyzed using the non-compartmental model of Phoenix WinNonlin 7.0 (Pharsight, USA) software to obtain the following pharmacokinetic parameters: maximum (peak) plasma drug concentration Cmax; time to peak Tmax; Half-life T1/2 and area under the plasma concentration-time curve extrapolated to infinity AUC0-inf."}, "h-GLP1-R C57BL6J mice": {"system": "h-GLP1-R C57BL6J mice", "experiment": "Intraperitoneal glucose tolerance (IPGTT) test in h-GLP1-R C57BL6J mice", "type": "in vivo", "description": "The compounds to be tested were dissolved in 10% Solutol HS15+90% Saline, and vortexed by ultrasonic to dissolve.\nMale SPF h-GLP1-R C57BL6J mice, 6-9 weeks old, weighing 20 g-25 g.\nUpon arrival, animals were acclimated for 7 days before experiments. The body weight and random blood sugar of the animals were measured one day before administration. Animals were divided into 4 groups based on body weight and random blood glucose.\nMice were overnight fasted before IPGTT. Baseline fasting blood glucose and insulin level were measured before vehicle or compound dosing. 30 min post of compound dosing, glucose were injected intraperitoneally (2 g/kg, 10 ml/kg). Blood glucose levels were measured at −30, 0, 15, 30, 60, 120 min. Plasma 15 ul were collected at 0 and 15 min for insulin analysis by Rat/Mouse Insulin Elisa Kit.\nAUC0-120min was the area under the blood glucose-time curve. Insulin change was the difference between 15 min and 0 min plasma insulin concentration. Statistical analysis of data was performed with Graphpad Prism 6, and the statistical method was one-way ANOVA Dunnett test. Compared with the vehicle group, p<0.05 was considered a significant difference. * means p<0.05, ** means p<0.01, *** means p<0.001."}, "cynomolgus monkeys": {"system": "cynomolgus monkeys", "experiment": "Intravenous glucose tolerance (IVGTT) experiment in cynomolgus monkey", "type": "in vivo", "description": "The compounds were dissolved in 10% Solutol HS15+90% Saline by vortex ultrasound. Vehicle was 10% Solutol HS15+90% Saline.\nMale cynomolgus monkeys, 10-15 years old, weighing 6-13 kg. Healthy animals were selected for efficacy studies according to alanine aminotransferase (ALT), aspartate aminotransferase (AST), triglyceride (TG), total cholesterol (TC), high density lipoprotein (HDL), low density lipoprotein (LDL), glycosylated hemoglobin (HbA1c), body weight (BW).\nAfter 1 week of acclimation, the IVGTT baseline before administration was measured, and the animals were grouped according to the insulin and blood glucose results of the IVGTT. The detailed information of treatment was as follows:\nIVGTT was started after 2 hours post of compound dosing. Blood were collected-at −15 min, 0 min (before sugar administration), and 2, 5, 7, 10, 20, and 30 min after sugar administration. And the blood glucose level were measured.\nData was analyzed by Graphpad Prism 6 and the statistical method was one-way ANOVA Dunnett's test. Compared with the vehicle group, p<0.05 was considered significant difference. * means p<0.05, ** means p<0.01, *** means p<0.001."}, "[3]": {"details": "mouse, plasma, male CD-1 mice, 1 mg/kg iv"}, "[4]": {"details": "mouse, plasma, male CD-1 mice, 5 mg/kg po"}, "[5]": {"details": "cynomolgus monkey, plasma, male cynomolgus monkeys, 1 mg/kg iv"}, "[6]": {"details": "cynomolgus monkey, plasma, male cynomolgus monkeys, 5 mg/kg po"}}, "data": [{"smiles": "N#Cc1ccc(OCc2cccc(OC3CCN(Cc4nc5ccc(C(=O)O)cc5n4C[C@@H]4CCO4)CC3)n2)c(F)c1", "note": "[Compound 55, (S)-2-((4-((6-((4-cyano-2-fluorophenoxy)methyl)pyridin-2-yl)oxy)piperidin-1-yl)methyl)-1-(oxetan-2-ylmethyl)-1H-benzo[d]imidazole-6-carboxylic acid]", "values": [{"measurement": "EC50", "setting": "GLP-1R; 30 min incubation", "result": 0.149, "unit": "nM"}, {"measurement": "Max activity", "setting": "GLP-1R; relative to top concentration of reference GLP-1(7-37)", "result": 111.5, "unit": "%"}, {"measurement": "F", "setting": "[1]; male CD-1 mice, 5 mg/kg po", "result": 32.7, "unit": "%"}, {"measurement": "clearance rate compared with PF-06882961", "setting": "[1]; mice", "result": "lower clearance rates"}, {"measurement": "exposure compared with PF-06882961", "setting": "[1]; mice", "result": "higher exposure"}, {"measurement": "clearance", "setting": "[1]; [3]", "result": 26.2, "unit": "mL/min/kg"}, {"measurement": "AUC(0-inf)", "setting": "[1]; [3]", "result": 637, "unit": "ng·h/mL"}, {"measurement": "half-life", "setting": "[1]; [3]", "result": 1.5, "unit": "h"}, {"measurement": "Vd", "setting": "[1]; mouse, plasma, male CD-1 mice, 1 mg/kg iv, read-out: Vdss", "result": 1.3, "unit": "L/kg"}, {"measurement": "AUC(0-inf)", "setting": "[1]; [4]", "result": 1040, "unit": "ng·h/mL"}, {"measurement": "Cmax", "setting": "[1]; mouse, plasma, male CD-1 mice, 5 mg/kg po, read-out: Cmax", "result": 483, "unit": "ng/mL"}, {"measurement": "half-life", "setting": "[1]; [4]", "result": 1.7, "unit": "h"}, {"measurement": "clearance", "setting": "[2]; [5]", "result": 12, "unit": "mL/min/kg"}, {"measurement": "AUC(0-inf)", "setting": "[2]; [5]", "result": 1420, "unit": "ng·h/mL"}, {"measurement": "half-life", "setting": "[2]; [5]", "result": 2.2, "unit": "h"}, {"measurement": "Vd", "setting": "[2]; cynomolgus monkey, plasma, male cynomolgus monkeys, 1 mg/kg iv, read-out: Vdss", "result": 0.4, "unit": "L/kg"}, {"measurement": "AUC(0-inf)", "setting": "[2]; [6]", "result": 614, "unit": "ng·h/mL"}, {"measurement": "Cmax", "setting": "[2]; cynomolgus monkey, plasma, male cynomolgus monkeys, 5 mg/kg po, read-out: Cmax", "result": 214, "unit": "ng/mL"}, {"measurement": "half-life", "setting": "[2]; [6]", "result": 5.4, "unit": "h"}, {"measurement": "F", "setting": "[2]; male cynomolgus monkeys, 5 mg/kg po", "result": 8.6, "unit": "%"}, {"measurement": "clearance rate compared with PF-06882961", "setting": "[2]; monkeys", "result": "lower clearance rates"}, {"measurement": "exposure compared with PF-06882961", "setting": "[2]; monkeys", "result": "higher exposure"}, {"measurement": "half-life compared with PF-06882961", "setting": "[2]; monkeys", "result": "greater"}, {"measurement": "Insulin change (15 min minus 0 min plasma insulin)", "setting": "h-GLP1-R C57BL6J mice; 0.3 mpk po", "result": "significantly increase insulin secretion"}, {"measurement": "AUC0-120min (area under the blood glucose-time curve)", "setting": "h-GLP1-R C57BL6J mice; 0.3 mpk po, compared with the vehicle group", "result": "significant difference compared with the vehicle group"}, {"measurement": "blood glucose during IPGTT", "setting": "h-GLP1-R C57BL6J mice; single oral dose 0.3 mg/kg, glucose 2 g/kg ip 30 min after dosing", "result": "significantly reduced the blood glucose"}, {"measurement": "effect on blood glucose compared with PF-06882961", "setting": "cynomolgus monkeys; 100 mg/kg po, IVGTT", "result": "equivalent"}, {"measurement": "blood glucose level in IVGTT", "setting": "cynomolgus monkeys; single oral dose of 100 mg/kg, IVGTT 2 hours after dosing", "result": "significantly lower the blood glucose level"}]}]}
